One data set relates to female SD rats. Nature of the data set: Urethral baseline pressure (intraurethral pressure) in anesthetized rats after oral administration. The class given is in vivo. To be noted: 10 mg/kg oral, 11-week-old female SD rats, 30 minutes after 8 hours from administration, compared with solvent administration group (Student's t-test), FIG. 1. As to the method: The compounds of the present invention and a comparative compound were individually orally administered in an amount of 10 mg/kg to 11-week-old female SD rats (test substance-administration groups) and distilled water was orally administered as the control to 11-week-old female SD rats (solvent administration group, n=8). As the comparative compound, 4-piperidyl 2,2-diphenyl-2-propoxyacetate was used (Comparative Example).
Seven and a half hours after administration, each rat was anesthetized by intraperitoneal administration of 1.2 g/kg of urethane. Thereafter, the ureters and the area between the urethra and the bladder were ligated, and a vesical fistula catheter and a catheter for measuring intraurethral pressure were inserted and indwelled in the bladder and the urethra. […] Intravesical pressure and intraurethral pressure were recorded via a polygraph connected with the pressure transducers. […] Physiological saline was injected into the urethra using the micro syringe pump connected to the urethra at 3 mL/hr, and the changes in intraurethral pressure associated with the rhythmic contraction were recorded.
The mean values of the urethral baseline pressure for the solvent administration group and the test substance-administration groups were calculated, and the results were indicated as mean±SE. […]

Broadly, the melting point is the temperature of the solid-liquid transition. With `Cl.O=C(OC1CCNCC1)C(OCCC(F)(F)F)(c1ccccc1)c1ccccc1`, the melting point is 152 to 153 °C. In the case of `Cl.O=C(OC1CCNCC1)C(OCCCF)(c1ccccc1)c1ccccc1`, the melting point fell in the range of 135 to 136 °C.

For the compound `Cl.O=C(COCCC(F)F)OC1CCNCC1`, the melting point was in the range of 130 to 132 °C. `Cl.O=C(OC1CCNCC1)C(OCC(F)F)(c1ccccc1)c1ccccc1`: the melting point is 172 to 174 °C. `Cl.O=C(OC1CCNCC1)C(OCC(F)(F)C(F)F)(c1ccccc1)c1ccccc1`: the melting point lay in the range of 128 to 130 °C. For `Cl.O=C(OC1CCNCC1)C(OCC(F)(F)C(F)(F)F)(c1ccccc1)c1ccccc1`, the melting point was 98 to 100 °C. Turning to `CCCOC(C(=O)OC1CCNCC1)(c1ccccc1)c1ccccc1` [comparative compound, 4-piperidyl 2,2-diphenyl-2-propoxyacetate], the results for the urethral baseline pressure result in the data set with female SD rats and in the data set on female SD rats (listed as Comparative Example) were “little effect” and “did not have a significant effect”, respectively.

Source of the values: patent US20160115129A1, “NOVEL F[…] ACID ESTER COMPOUND AND SALT THEREOF” (TAIHO PHARMACEUTICAL CO., LTD., priority 2013, published 2016).
